# Source: patent publication US10538564B2, “Peptides having osteoblast growth-promoting activity and use thereof” (PHARMA FOODS INTERNATIONAL CO., LTD., priority 2014, dated 2020)
# No end group written: not given here.
# Experiments:
# Type in all cases: in vivo, rat
# [1] = tested on: Crlj:W1 male rats at four weeks old; experiment: Bone formation in growth cartilage and secondary cancellous bone, 21-day oral administration; conditions: 21 days
# Description: One of the synthetic peptides (No. 1) or water for injection (control) was administered to Crlj:W1 male rats at four weeks old by oral gavage using a gastric tube once a day for 21 days (n=3 in each group). The dose of the synthetic peptide was 100 mg/kg·day. As a positive control, human growth hormone (hGH) (Norditropin, Standard Commodity Classification No. of Japan: 872412) was subcutaneously administered at 500 μg/kg·day once a day for 21 days. As fluorescent labels for the site of bone formation, tetracycline (20 mg/kg) was subcutaneously administered on day 18 after the administration of the peptide or control, and then calcein (10 mg/kg) was subcutaneously administered on day 20 after the administration of the peptide or control. After the administration of the test sample on day 21, the rats were kept under fasting conditions. Twenty-four hours later, the rats were euthanized by bloodletting under anesthesia, and the tibiae were harvested (see FIG. 20). Non-decalcified specimens of the proximal tibiae were prepared and photographed under a fluorescent microscope (BX-53, OLYMPUS). The bone morphology was measured using a morphometry system (Histometry RT digitizer, System Supply Co., Ltd.) and an analysis software (CSS-840 cancellous bone morphometry version, System Supply Co., Ltd.). The longitudinal growth rate (Lo.G.R.) in the epiphyseal cartilage, which is the increase in the height per day, was determined by measuring the distance between the tetracycline label and the calcein label, and dividing the distance by the administration interval between the fluorescent labels (two days).
# [2] = tested on: Sprague-Dawley male rats fed with a low-calcium diet; experiment: Bone density recovery test after low-calcium diet (DXA, pQCT); conditions: oral 1, 10 or 100 mg/kg·day for seven days after one week low-calcium diet; vs control
# Description: Sprague-Dawley male rats at three weeks old were initially fed with a low-calcium diet (containing 0.05% calcium carbonate) for one week, and then fed with a normal diet (containing 1.2% calcium carbonate). The synthetic peptide (No. 1) or physiological saline (control) was administered to the rats by oral gavage using a gastric tube once a day for seven days. The dose of the synthetic peptide was 1, 10 or 100 mg/kg·day. After the oral administration on day 7, the rats were euthanized by bloodletting under anesthesia, and the femurs and tibiae were harvested. The bone volume and bone morphology of the tibiae and femurs were measured by dual energy x-ray absorptiometry (DXA) and peripheral quantitative computed tomography (pQCT).
# [3] = tested on: Crlj:W1 male rats at four weeks old; experiment: Mineral apposition rate in secondary cancellous bone, 7-day oral administration; conditions: seven days
# Description: One of the synthetic peptides (No. 1) or water for injection (control) was administered to Crlj:W1 male rats at four weeks old by oral gavage using a gastric tube once a day for seven days (n=10 in each group). The dose of the synthetic peptide was 1, 10 or 100 mg/kg-day. As a positive control, human growth hormone (hGH) (Norditropin, Standard Commodity Classification No. of Japan: 872412) was subcutaneously administered at 500 μg/kg·day once a day for seven days. As fluorescent labels for the site of bone formation, tetracycline (20 mg/kg) was subcutaneously administered on day 4 after the administration of the peptide or control, and then calcein (10 mg/kg) was subcutaneously administered on day 6 after the administration of the peptide or control. After the administration of the test sample on day 7, the rats were kept under fasting conditions. Twenty-four hours later, the rats were euthanized by bloodletting under anesthesia, and the tibiae were harvested. Non-decalcified specimens of the proximal tibiae were prepared and photographed under a fluorescent microscope (BX-53, OLYMPUS). The bone morphology was measured using a morphometry system (Histometry RT digitizer, System Supply Co., Ltd.) and an analysis software (CSS-840 cancellous bone morphometry version, System Supply Co., Ltd.). The mineral apposition rate (MAR), per day, in the secondary cancellous bone was determined by measuring the distance between the tetracycline label and the calcein label in the secondary cancellous bone, and dividing the distance by the administration interval between the fluorescent labels (two days). […] The increase in the mineral apposition rate in the secondary cancellous bone in the No. 1 administration group would have resulted from the increase in the number of osteoblasts.
# [4] = tested on: Crlj:W1 male rats at four weeks old; experiment: Bone formation in growth cartilage and primary cancellous bone, 7-day oral administration; conditions: seven days
# Description: One of the synthetic peptides (No. 1) or water for injection (control) was administered to Crlj:W1 male rats at four weeks old by oral gavage using a gastric tube once a day for seven days (n=3 in each group). The dose of the synthetic peptide (No. 1) was 100 mg/kg-day. As a positive control, human growth hormone (hGH) (Norditropin, Standard Commodity Classification No. of Japan: 872412) was subcutaneously administered at 500 μg/kg-day once a day for seven days. As fluorescent labels for the site of bone formation, tetracycline (20 mg/kg) was subcutaneously administered on day 4 after the administration of the peptide or control, and then calcein (10 mg/kg) was subcutaneously administered on day 6 after the administration of the peptide or control. After the administration of the test sample on day 7, the rats were kept under fasting conditions. Twenty-four hours later, the blood was collected. The rats were then euthanized by bloodletting under anesthesia, and the tibiae were harvested (see FIG. 16). Non-decalcified specimens of the proximal tibiae were prepared and photographed under a fluorescent microscope (BX-53, OLYMPUS). The bone morphology was measured using a morphometry system (Histometry RT digitizer, System Supply Co., Ltd.) and an analysis software (CSS-840 cancellous bone morphometry version, System Supply Co., Ltd.). The longitudinal growth rate (Lo.G.R.) in the growth cartilage, which is the increase in the height per day, was determined by measuring the distance between the tetracycline label and the calcein label, and dividing the distance by the administration interval between the fluorescent labels (two days).
# The increase in the level of IGF-1, which is related to growth of the bones and muscles in a growth phase, may contribute to the bone growth-promoting effect.
sequence,measurement,setting,value
VNPESEEE [No. 1],"longitudinal growth rate (Lo.G.R.) in the epiphyseal cartilage, vs control group","[1]; No. 1 oral 100 mg/kg·day, hGH 500 μg/kg·day subcutaneous, FIG. 21",significant promotion of bone growth as compared with the control group
same,"longitudinal growth rate (Lo.G.R.) in the epiphyseal cartilage, vs hGH administration group","[1]; oral 100 mg/kg·day, FIG. 21",significant as compared with the hGH administration group
same,secondary cancellous bone volume (bone volume/tissue volume (BV/TV)),"[1]; oral 100 mg/kg·day, FIG. 22",higher secondary cancellous bone volume than the control group and the hGH administration group
same,osteoblast surface/bone surface (Ob.S/BS),"[1]; oral 100 mg/kg·day, FIG. 23",high percentage
same,osteoclast surface/Bone surface (Oc.S/BS),"[1]; oral 100 mg/kg·day, FIG. 24",low percentage
same,bone density of the tibiae,[2],tended to be higher in the synthetic peptide administration group than in the control group
same,length of the tibiae,[2],tended to be higher in the synthetic peptide administration group than in the control group
same,weight of the tibiae,[2],tended to be higher in the synthetic peptide administration group than in the control group
same,"mineral apposition rate (MAR) in the secondary cancellous bone, vs control group","[3]; No. 1 oral 1, 10 or 100 mg/kg-day, hGH 500 μg/kg·day subcutaneous, FIG. 26",significant increase in the mineral apposition rate
same,osteoblast surface/bone surface (Ob.S/BS),"[3]; oral 1, 10 or 100 mg/kg-day, FIG. 27",high percentage
same,number of osteoblasts/tissue volume (N.Ob/TV),"[3]; oral 1, 10 or 100 mg/kg-day, FIG. 28",high number of osteoblasts
same,bone formation rate/bone surface (BFR/BS),"[3]; oral 1, 10 or 100 mg/kg-day, FIG. 29",high rates
same,"bone formation rate/bone surface (BFR/BS), vs control group",[3]; oral dose of 10 mg/kg-day or more,significant increase in the bone formation rate
same,"mineral apposition rate (MAR) in the secondary cancellous bone, vs hGH administration group","[3]; oral dose of 10 mg/kg·day or more, FIG. 26",significant increase in the mineral apposition rate at a dose of 10 mg/kg·day or more as compared with the hGH administration group
same,serum level of insulin-like growth factor (IGF-1),"[4]; No. 1 oral 100 mg/kg-day, hGH 500 μg/kg-day subcutaneous, ELISA, FIG. 19",higher than that in the control group
same,"longitudinal growth rate (Lo.G.R.) in the growth cartilage, vs control group","[4]; No. 1 oral 100 mg/kg-day, hGH 500 μg/kg-day subcutaneous, FIG. 17",significant promotion of bone growth as compared with the control group
same,"longitudinal growth rate (Lo.G.R.) in the growth cartilage, vs hGH administration group","[4]; oral 100 mg/kg-day, FIG. 17",significant as compared with the hGH administration group
same,incorporation of the fluorescent labels into the primary cancellous bone,"[4]; oral 100 mg/kg-day, vs control group and hGH group, FIG. 18",high frequency of incorporation of the fluorescent labels into the primary cancellous bone
